Test results taken from patent publication US20130156825A1, “Modafinil Formulations” (CEPHALON, INC., priority 2002, published 2013).

Experiments:
[1] = PSD of modafinil particles, Hiac/Royco light obscuration; assay type: physicochemical; details: Hiac
Method: (§1) Modafinil PSD was measured in '517 U.S. patent by using a Hiac/Royco machine. This machine uses a light obscuration technique for the PSD measurement. We repeated the measurements of the PSD on a Hiac/Royco machine and compared it with a different laser beam obscuration technique offered by the commonly used Malvern machine. Both methods use light obscuration as means to evaluate the PSD, but they work on different principles. The results confirmed the validity of our PSD measurements. Both methods gave similar values. Both methods also gave PSD results that are far away from the scope of the values claimed by the '517 U.S. Patent. The following table summarizes the data. Values are reported in microns. The term D(v,0.5) denotes the diameter of the largest particle found in 50% of the particles sorted in increasing order. The other two terms refer to 85% and 95% of the particles. The terms mean, median and mode are used in their regular statistical meaning.

[2] = PSD of modafinil used to prepare the modafinil tablets; assay type: physicochemical; details: modafinil used for 200 mg tablets, method not stated
Method: Tablets containing 200 mg of modafinil having PSD as provided in table 2 below (values are in microns) were prepared: […]

[3] = PSD of modafinil particles, Malvern laser technique; assay type: physicochemical
Method: as §1

[4] = '517 U.S. Patent; cited from earlier work

NC(=O)C[S+]([O-])C(c1ccccc1)c1ccccc1 (centres unmarked) [Batch A, 2-[(diphenylmethyl)sulfinyl]acetamide]
D(v, 0.5) ([1]; listed as A): 133 microns | D(v, 0.85) ([1]; listed as A): 229 microns | D(v, 0.95) ([1]; listed as A): 282 microns | Mean particle size ([1]; listed as A): 51 microns | Median particle size ([1]; listed as A): 134 microns | mode particle size ([1]; listed as A): 196 microns | D(v, 0.5) ([2]; listed as A): 107 microns | D(v, 0.85) ([2]; listed as A): 235 microns | D(v, 0.95) ([2]; listed as A): 318 microns | Median ([2]; listed as A): 107 microns | D(v, 0.5) ([3]; listed as A): 107 microns | D(v, 0.85) ([3]; listed as A): 235 microns | D(v, 0.95) ([3]; listed as A): 318 microns | Median particle size ([3]; listed as A): 107 microns

NC(=O)C[S+]([O-])C(c1ccccc1)c1ccccc1 (centres unmarked) [Batch B, 2-[(diphenylmethyl)sulfinyl]acetamide]
D(v, 0.5) ([1]; listed as B): 103 microns | D(v, 0.85) ([1]; listed as B): 194 microns | D(v, 0.95) ([1]; listed as B): 265 microns | Mean particle size ([1]; listed as B): 40 microns | Median particle size ([1]; listed as B): 104 microns | mode particle size ([1]; listed as B): 148 microns | D(v, 0.5) ([2]; listed as B): 85 microns | D(v, 0.85) ([2]; listed as B): 215 microns | D(v, 0.95) ([2]; listed as B): 293 microns | Median ([2]; listed as B): 85 microns | D(v, 0.5) ([3]; listed as B): 85 microns | D(v, 0.85) ([3]; listed as B): 215 microns | D(v, 0.95) ([3]; listed as B): 293 microns | Median particle size ([3]; listed as B): 85 microns

NC(=O)C[S+]([O-])C(c1ccccc1)c1ccccc1 (centres unmarked) [Batch C, 2-[(diphenylmethyl)sulfinyl]acetamide]
D(v, 0.5) ([1]; listed as C): 148 microns | D(v, 0.85) ([1]; listed as C): 231 microns | D(v, 0.95) ([1]; listed as C): 277 microns | Mean particle size ([1]; listed as C): 51 microns | Median particle size ([1]; listed as C): 148 microns | mode particle size ([1]; listed as C): 193 microns | D(v, 0.5) ([2]; listed as C): 128 microns | D(v, 0.85) ([2]; listed as C): 228 microns | D(v, 0.95) ([2]; listed as C): 303 microns | Median ([2]; listed as C): 128 microns | D(v, 0.5) ([3]; listed as C): 128 microns | D(v, 0.85) ([3]; listed as C): 228 microns | D(v, 0.95) ([3]; listed as C): 303 microns | Median particle size ([3]; listed as C): 128 microns

NC(=O)C[S+]([O-])C(c1ccccc1)c1ccccc1 (centres unmarked) [Batch D, 2-[(diphenylmethyl)sulfinyl]acetamide]
D(v, 0.5) ([2]; listed as D): 95 microns | D(v, 0.85) ([2]; listed as D): 217 microns | D(v, 0.95) ([2]; listed as D): 297 microns | Median ([2]; listed as D): 95 microns

NC(=O)C[S+]([O-])C(c1ccccc1)c1ccccc1 (centres unmarked) [“early” batches]
median value of modafinil particles [4]: 94-143 μ | size below which 95% of the particles lie [4]: 220-280 μ

NC(=O)C[S+]([O-])C(c1ccccc1)c1ccccc1 (centres unmarked) [“late” batches]
median value of modafinil particles [4]: 31-50 μ | size below which 95% of the particles lie [4]: 110-150 μ
